Laboratory results taken from PubChem BioAssay AID2060885 (Molecular Pharmacology Branch, DTP, NCI, 2025).

Tested on: NCI-H23 complex spheroids with HUVEC/MSC, viability
Assay: Anticancer human tumor NCI-H23 cell line growth inhibition [RAS];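 further: spheroids exposed to compound for 7 days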;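 on viability, T/C: 100% = DMSO vehicle control viability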
Conditions: for IC50: curve of first compound; for viability, T/C: stronger effect = lower value
Summary of the method: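 Tumour cells grown as complex spheroids with HUVEC endothelial cells and mesenchymal stem cells, treated with RAS pathway inhibitor combinations. Each agent spans half-log steps from near clinical Cmax, or 10 microM where Cmax is unknown.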

[1] = second compound 0.000949 µM, first compound 0.0316 µM
[2] = second compound 0.000949 µM, first compound 0.1 µM
[3] = second compound 0.000949 µM, first compound 0.316 µM
[4] = second compound 0.000949 µM, first compound 1 µM
[5] = second compound 0.000949 µM, first compound 3.16 µM
[6] = second compound 0.000949 µM, first compound 10 µM
[7] = second compound 0.003 µM, first compound 0.0316 µM
[8] = second compound 0.003 µM, first compound 0.1 µM
[9] = second compound 0.003 µM, first compound 0.316 µM
[10] = second compound 0.003 µM, first compound 1 µM
[11] = second compound 0.003 µM, first compound 3.16 µM
[12] = second compound 0.003 µM, first compound 10 µM
[13] = second compound 0.00949 µM, first compound 0.0316 µM
[14] = second compound 0.00949 µM, first compound 0.1 µM
[15] = second compound 0.00949 µM, first compound 0.316 µM
[16] = second compound 0.00949 µM, first compound 1 µM
[17] = second compound 0.00949 µM, first compound 3.16 µM
[18] = second compound 0.00949 µM, first compound 10 µM
[19] = second compound 0.03 µM, first compound 0.0316 µM
[20] = second compound 0.03 µM, first compound 0.1 µM
[21] = second compound 0.03 µM, first compound 0.316 µM
[22] = second compound 0.03 µM, first compound 1 µM
[23] = second compound 0.03 µM, first compound 3.16 µM
[24] = second compound 0.03 µM, first compound 10 µM
[25] = second compound 0.0949 µM, first compound 0.0316 µM
[26] = second compound 0.0949 µM, first compound 0.1 µM
[27] = second compound 0.0949 µM, first compound 0.316 µM
[28] = second compound 0.0949 µM, first compound 1 µM
[29] = second compound 0.0949 µM, first compound 3.16 µM
[30] = second compound 0.0949 µM, first compound 10 µM
[31] = second compound 0.3 µM, first compound 0.0316 µM
[32] = second compound 0.3 µM, first compound 0.1 µM
[33] = second compound 0.3 µM, first compound 0.316 µM
[34] = second compound 0.3 µM, first compound 1 µM
[35] = second compound 0.3 µM, first compound 3.16 µM
[36] = second compound 0.3 µM, first compound 10 µM

Which results are given for `Cc1nc(N2CCC3(CC2)COC(C)C3N)c(CO)nc1Sc1ccnc(N)c1Cl` (stereo unspecified) + CCn1c(-c2cc(N3CCN(C)CC3)cnc2C(C)OC)c2c3cc(ccc31)-c1csc(n1)CC(NC(=O)C1CC1C)C(=O)N1CCCC(N1)C(=O)OCC(C)(C)C2?
IC50 (second compound 0.000949 µM): < 0.0316 µM; IC50 (second compound 0.003 µM): < 0.0316 µM; IC50 (second compound 0.00949 µM): < 0.0316 µM; IC50 (second compound 0.03 µM): < 0.0316 µM; IC50 (second compound 0.0949 µM): < 0.0316 µM; IC50 (second compound 0.3 µM): < 0.0316 µM; viability, T/C [1]: 40.2%; viability, T/C [2]: 33.2%; viability, T/C [3]: 22.9%; viability, T/C [4]: 26.2%; viability, T/C [5]: 18.7%; viability, T/C [6]: 13.7%; viability, T/C [7]: 35%; viability, T/C [8]: 25.4%; viability, T/C [9]: 21.2%; viability, T/C [10]: 21%; viability, T/C [11]: 15%; viability, T/C [12]: 10.5%; viability, T/C [13]: 30.2%; viability, T/C [14]: 19.9%; viability, T/C [15]: 20%; viability, T/C [16]: 17.1%; viability, T/C [17]: 11.5%; viability, T/C [18]: 7.55%; viability, T/C [19]: 24.4%; viability, T/C [20]: 22.5%; viability, T/C [21]: 18%; viability, T/C [22]: 14.1%; viability, T/C [23]: 8.53%; viability, T/C [24]: 7.44%; viability, T/C [25]: 17.3%; viability, T/C [26]: 17.8%; viability, T/C [27]: 14.6%; viability, T/C [28]: 10.8%; viability, T/C [29]: 7.63%; viability, T/C [30]: 7.62%; viability, T/C [31]: 17.4%; viability, T/C [32]: 17.8%; viability, T/C [33]: 12.3%; viability, T/C [34]: 9.93%; viability, T/C [35]: 7.11%; viability, T/C [36]: 5.57%

What does the source list for `NC1c2ccccc2OC12CCN(c1cnc3c(N4CCCc5ncccc54)n[nH]c3n1)CC2` (stereo unspecified) + CCn1c(-c2cc(N3CCN(C)CC3)cnc2C(C)OC)c2c3cc(ccc31)-c1csc(n1)CC(NC(=O)C1CC1C)C(=O)N1CCCC(N1)C(=O)OCC(C)(C)C2?
IC50 (second compound 0.000949 µM): < 0.0316 µM; IC50 (second compound 0.003 µM): < 0.0316 µM; IC50 (second compound 0.00949 µM): < 0.0316 µM; IC50 (second compound 0.03 µM): < 0.0316 µM; IC50 (second compound 0.0949 µM): < 0.0316 µM; IC50 (second compound 0.3 µM): < 0.0316 µM; viability, T/C [1]: 29%; viability, T/C [2]: 22.1%; viability, T/C [3]: 15.2%; viability, T/C [4]: 15.1%; viability, T/C [5]: 10.4%; viability, T/C [6]: 7.21%; viability, T/C [7]: 23.4%; viability, T/C [8]: 15.7%; viability, T/C [9]: 12.3%; viability, T/C [10]: 8.99%; viability, T/C [11]: 8.38%; viability, T/C [12]: 5.79%; viability, T/C [13]: 19.4%; viability, T/C [14]: 13.9%; viability, T/C [15]: 9.85%; viability, T/C [16]: 7.3%; viability, T/C [17]: 5.1%; viability, T/C [18]: 5.27%; viability, T/C [19]: 15.7%; viability, T/C [20]: 12.8%; viability, T/C [21]: 8.98%; viability, T/C [22]: 5.94%; viability, T/C [23]: 4.97%; viability, T/C [24]: 5.95%; viability, T/C [25]: 12.9%; viability, T/C [26]: 9.83%; viability, T/C [27]: 6.34%; viability, T/C [28]: 5.78%; viability, T/C [29]: 4.29%; viability, T/C [30]: 6.19%; viability, T/C [31]: 11%; viability, T/C [32]: 7.93%; viability, T/C [33]: 6.42%; viability, T/C [34]: 4.7%; viability, T/C [35]: 4.58%; viability, T/C [36]: 5.26%

`Nc1ccn(C2OC(CO)C(O)C2(F)F)c(=O)n1` (stereo unspecified) + CCn1c(-c2cc(N3CCN(C)CC3)cnc2C(C)OC)c2c3cc(ccc31)-c1csc(n1)CC(NC(=O)C1CC1C)C(=O)N1CCCC(N1)C(=O)OCC(C)(C)C2 was tested. Which IC50 (second compound 0.000949 µM) did it give?
The IC50 was less than 0.00316 µM.

And the IC50 (second compound 0.003 µM)?
The IC50 was less than 0.00316 µM.

What about the IC50 (second compound 0.00949 µM) of the same compound?
The IC50 was less than 0.00316 µM.

And the IC50 (second compound 0.03 µM)?
Its IC50 is less than 0.00316 µM.

What about the IC50 (second compound 0.0949 µM) of the same compound?
The IC50 was less than 0.00316 µM.

And the IC50 (second compound 0.3 µM)?
Its IC50 is less than 0.00316 µM.

What about the viability, T/C (second compound 0.000949 µM, first compound 0.00316 µM) of the same compound?
Its viability, T/C is 16.9%.

And the viability, T/C (second compound 0.000949 µM, first compound 0.01 µM)?
Its viability, T/C is 2.1%.

What about the viability, T/C [1] of the same compound?
The viability, T/C was 2.03%.

And the viability, T/C [2]?
Its viability, T/C is 1.87%.

What about the viability, T/C [3] of the same compound?
The viability, T/C was 1.82%.

And the viability, T/C [4]?
Its viability, T/C is 1.3%.

What about the viability, T/C (second compound 0.003 µM, first compound 0.00316 µM) of the same compound?
Its viability, T/C is 12.9%.

And the viability, T/C (second compound 0.003 µM, first compound 0.01 µM)?
The viability, T/C was 1.96%.

And the viability, T/C [7]?
The viability, T/C was 1.42%.

What about the viability, T/C [8] of the same compound?
Its viability, T/C is 1.52%.

What about the viability, T/C [9] of the same compound?
The viability, T/C was 2.04%.

And the viability, T/C [10]?
Its viability, T/C is 1.24%.

And the viability, T/C (second compound 0.00949 µM, first compound 0.00316 µM)?
The viability, T/C was 12.6%.

And the viability, T/C (second compound 0.00949 µM, first compound 0.01 µM)?
The viability, T/C was 1.87%.

And the viability, T/C [13]?
The viability, T/C was 2.05%.

What about the viability, T/C [14] of the same compound?
Its viability, T/C is 1.74%.

And the viability, T/C [15]?
Its viability, T/C is 2.15%.

And the viability, T/C [16]?
The viability, T/C was 2.22%.

What about the viability, T/C (second compound 0.03 µM, first compound 0.00316 µM) of the same compound?
Its viability, T/C is 12%.

And the viability, T/C (second compound 0.03 µM, first compound 0.01 µM)?
Its viability, T/C is 2.82%.

What about the viability, T/C [19] of the same compound?
The viability, T/C was 2.27%.

And the viability, T/C [20]?
Its viability, T/C is 2.33%.

And the viability, T/C [21]?
Its viability, T/C is 1.56%.

What about the viability, T/C [22] of the same compound?
Its viability, T/C is 1.99%.

What about the viability, T/C (second compound 0.0949 µM, first compound 0.00316 µM) of the same compound?
The viability, T/C was 12.2%.

And the viability, T/C (second compound 0.0949 µM, first compound 0.01 µM)?
Its viability, T/C is 3.4%.

What about the viability, T/C [25] of the same compound?
The viability, T/C was 3.37%.

And the viability, T/C [26]?
Its viability, T/C is 2.4%.

And the viability, T/C [27]?
The viability, T/C was 2.14%.

And the viability, T/C [28]?
The viability, T/C was 2.59%.

And the viability, T/C (second compound 0.3 µM, first compound 0.00316 µM)?
Its viability, T/C is 15.5%.

What about the viability, T/C (second compound 0.3 µM, first compound 0.01 µM) of the same compound?
Its viability, T/C is 5.87%.

What about the viability, T/C [31] of the same compound?
The viability, T/C was 3.63%.

And the viability, T/C [32]?
Its viability, T/C is 3.14%.

What about the viability, T/C [33] of the same compound?
Its viability, T/C is 2.91%.

What about the viability, T/C [34] of the same compound?
The viability, T/C was 3.48%.
